pIC50: −log10 of the molar value.
What was measured:
[1] = tested on: PMA-stimulated P90RSK(Ser380) phosphorylation in HepG2 cells; assay: Cellular P90RSK(Ser380) Phosphorylation Assay; type: cell-based; details: Homo sapiens, 1.5 hours compound incubation, PMA 100 ng/mL, normalized to GAPDH, single assay or mean of multiple assays, read-out: Biological Example 2 IC50
Protocol: Inhibition of PMA-stimulated P90RSK(Ser380) phosphorylation was determined by the following in vitro cellular mechanistic assay, which comprises incubating cells with a compound for 1.5 hours and quantifying fluorescent pP90RSK(Ser380) signal on fixed cells and normalizing to GAPDH signal.
HepG2 cells were obtained from ATCC (Manassas, Va.) and grown in DMEM supplemented with 10% fetal bovine serum. Cells were plated in 96-well plates at 35,000 cells/well and allowed to attach overnight at 37° C./5% CO2. Diluted compounds were then added at a final concentration of 0.5% DMSO. After 1.5 hours compound incubation, cells were stimulated with the addition of phorbol 12-myristate 13-acetate (“PMA”) at a final concentration of 100 ng/mL; the PMA stimulation was a 30-minute incubation at 37° C./5% CO2. After the 30-minute PMA stimulation, cells were washed with phosphate buffered saline (“PBS”) and fixed in 3.7% formaldehyde in PBS at room temperature for 15-20 minutes. This was followed by another wash in PBS and then permeabilization in 100% MeOH at room temperature for 10-15 minutes. Following the permeabilization incubation, cells were washed in PBS/0.05% Tween-20, followed by a block in Odyssey blocking buffer (LI-COR Biosciences) for at least 1 hour. Antibodies to phosphorylated P90RSK(Ser380) (Cell Signaling #9335, rabbit monoclonal) and GAPDH (Fitzgerald 10R-G109a, mouse monoclonal) were added to the cells and incubated overnight at 4° C. pP90RSK(Ser380) antibody was used at a 1:250 dilution; GAPDH was used at a 1:10,000 dilution. After washing with PBS/0.05% Tween-20, the cells were incubated with fluorescently-labeled secondary antibodies (Anti-rabbit-Alexa Flour680, Invitrogen Cat#A21109; Anti-mouse-IRDye800CW, Rockland Inc. Cat#610-131-121) for 1 hour. Both secondary antibodies were used at a 1:1000 dilution. Cells were then washed and analyzed for fluorescence at both wavelengths using the Odyssey Infrared Imaging System (LI-COR Biosciences). Phosphorylated P90RSK(Ser380) signal was normalized to GAPDH signal.

[2] = biological target: human ERK-2 (Mitogen Activated Kinase 1) (Homo sapiens (Human), UniProt P28482); assay: ERK-2 Enzymatic Assay; type: biochemical; details: ERK-2 enzyme, 25 μM ATP; single assay or mean of multiple assays; read-out: Biological Example 1 IC50
human ERK-2 (Mitogen Activated Kinase 1), sequence (P28482 8-360): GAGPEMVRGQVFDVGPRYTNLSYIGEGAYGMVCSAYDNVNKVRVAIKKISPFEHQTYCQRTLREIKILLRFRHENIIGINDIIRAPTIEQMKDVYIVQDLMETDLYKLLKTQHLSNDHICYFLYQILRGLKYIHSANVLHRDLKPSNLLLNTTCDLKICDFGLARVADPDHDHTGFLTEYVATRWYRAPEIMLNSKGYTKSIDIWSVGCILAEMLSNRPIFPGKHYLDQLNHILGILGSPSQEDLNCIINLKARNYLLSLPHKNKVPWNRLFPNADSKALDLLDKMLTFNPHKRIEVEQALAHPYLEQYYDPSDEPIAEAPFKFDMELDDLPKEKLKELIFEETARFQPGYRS

| SMILES | pIC50 [1] | pIC50 [2] |
| --- | --- | --- |
| Cn1nccc1Nc1cc(-c2ccn3c(CC4(C(F)(F)F)CC4)nnc3c2)ccn1 [Example 396, N-(1-methyl-1H-pyrazol-5-yl)-4-(3-((1-(trifluoromethyl)cyclopropyl)methyl)-[1,2,4]triazolo[4,3-a]pyridin-7-yl)pyridin-2-amine] | 7.45 | 8.48 |
| Cn1nccc1Nc1nccc(-c2ccn3c(CC4CCC(F)(F)CC4)nnc3c2)n1 [Example 317, 4-(3-((4,4-difluorocyclohexyl)methyl)-[1,2,4]triazolo[4,3-a]pyridin-7-yl)-N-(1-methyl-1H-pyrazol-5-yl)pyrimidin-2-amine] | 7.45 | 9.05 |
| CO[C@@H](c1ccccc1)c1nnc2cc(-c3ccnc(NC4CCOCC4)n3)ccn12 [Example 195, (S)-4-(3-(methoxy(phenyl)methyl)-[1,2,4]triazolo[4,3-a]pyridin-7-yl)-N-(tetrahydro-2H-pyran-4-yl)pyrimidin-2-amine] | 7.40 | 7.60 |
| Cn1nccc1Nc1nccc(-c2ccn3c(CSC4CCCC4)nnc3c2)n1 [Example 307, 4-(3-((cyclopentylthio)methyl)-[1,2,4]triazolo[4,3-a]pyridin-7-yl)-N-(1-methyl-1H-pyrazol-5-yl)pyrimidin-2-amine] | 7.49 | 8.46 |
| Fc1ccccc1Cc1nnc2cc(-c3ccnc(NC4CCOCC4)n3)ccn12 [Example 398, 4-(3-(2-fluorobenzyl)-[1,2,4]triazolo[4,3-a]pyridin-7-yl)-N-(tetrahydro-2H-pyran-4-yl)pyrimidin-2-amine] | 7.81 | 8.52 |
| COC(Cc1nnc2cc(-c3ccnc(Nc4ccnn4C)n3)ccn12)C(F)(F)F (stereo not shown) [Example 108, N-(1-methyl-1H-pyrazol-5-yl)-4-(3-(3,3,3-trifluoro-2-methoxypropyl)-[1,2,4]triazolo[4,3-a]pyridin-7-yl)pyrimidin-2-amine] | 7.42 | 8.47 |
| COc1ncc(F)cc1CN1CCCC(c2nnc3cc(-c4ccnc(NC5CCOCC5)n4)ccn23)C1 (stereo not shown) [Example 132, 4-(3-(1-((5-fluoro-2-methoxypyridin-3-yl)methyl)piperidin-3-yl)-[1,2,4]triazolo[4,3-a]pyridin-7-yl)-N-(tetrahydro-2H-pyran-4-yl)pyrimidin-2-amine] | < 5.30 | 6.70 |
| Fc1c(-c2ccnc(NC3CCOCC3)c2)ccn2c(Cc3ccc(Cl)cc3)nnc12 [Example 112, 4-(3-(4-chlorobenzyl)-8-fluoro-[1,2,4]triazolo[4,3-a]pyridin-7-yl)-N-(tetrahydro-2H-pyran-4-yl)pyridin-2-amine] | 6.06 | 7.77 |
| Cn1nccc1Nc1nccc(-c2ccn3c(CC(C)(C)C)nnc3c2)n1 [Example 150, N-(1-methyl-1H-pyrazol-5-yl)-4-(3-neopentyl-[1,2,4]triazolo[4,3-a]pyridin-7-yl)pyrimidin-2-amine] | 7.41 | 8.55 |
| CN1CC(Oc2c(F)cccc2F)CC(c2nnc3cc(-c4ccnc(Nc5ccnn5C)n4)ccn23)C1 (stereo not shown) [Example 113, 4-(3-(5-(2,6-difluorophenoxy)-1-methylpiperidin-3-yl)-[1,2,4]triazolo[4,3-a]pyridin-7-yl)-N-(1-methyl-1H-pyrazol-5-yl)pyrimidin-2-amine] | 7.42 | 8.47 |
| c1cc(-c2ccn3c(C4CCCNC4)nnc3c2)nc(NC2CCOCC2)n1 (stereo not shown) [Example 131, 4-(3-(piperidin-3-yl)-[1,2,4]triazolo[4,3-a]pyridin-7-yl)-N-(tetrahydro-2H-pyran-4-yl)pyrimidin-2-amine] | 5.62 | 6.65 |
| CN(C)C(c1ccc(F)cc1)c1nnc2cc(-c3ccnc(Nc4ccnn4C)n3)ccn12 (stereo not shown) [Example 377, 4-(3-((dimethylamino)(4-fluorophenyl)methyl)-[1,2,4]triazolo[4,3-a]pyridin-7-yl)-N-(1-methyl-1H-pyrazol-5-yl)pyrimidin-2-amine] | 7.08 | 8.27 |
| Cn1nccc1Nc1nccc(-c2ccn3c(CC45CC6CC(CC(C6)C4)C5)nnc3c2)n1 [Example 379, 4-(3-((1s,3s)-adamantan-1-ylmethyl)-[1,2,4]triazolo[4,3-a]pyridin-7-yl)-N-(1-methyl-1H-pyrazol-5-yl)pyrimidin-2-amine] | 7.61 | 8.62 |
| CCOc1ccc(Cc2nnc3cc(-c4ccnc(Nc5ccnn5C)n4)ccn23)cn1 [Example 493, 4-(3-((6-ethoxypyridin-3-yl)methyl)-[1,2,4]triazolo[4,3-a]pyridin-7-yl)-N-(1-methyl-1H-pyrazol-5-yl)pyrimidin-2-amine] | 6.93 | 9.10 |
| CCOCCc1nnc2cc(-c3ccnc(Nc4ccnn4C)n3)ccn12 [Example 111, 4-(3-(2-ethoxyethyl)-[1,2,4]triazolo[4,3-a]pyridin-7-yl)-N-(1-methyl-1H-pyrazol-5-yl)pyrimidin-2-amine] | 7.55 | 8.54 |
| COc1ccc(Cc2nnc3cc(-c4nc(NC5CCOCC5)ncc4F)ccn23)cc1 [Example 123, 5-fluoro-4-(3-(4-methoxybenzyl)-[1,2,4]triazolo[4,3-a]pyridin-7-yl)-N-(tetrahydro-2H-pyran-4-yl)pyrimidin-2-amine] | 7.59 | 8.55 |
| Cn1nccc1Nc1cc(-c2ccn3c(CC4CC4)nnc3c2)ccn1 [Example 295, 4-(3-(cyclopropylmethyl)-[1,2,4]triazolo[4,3-a]pyridin-7-yl)-N-(1-methyl-1H-pyrazol-5-yl)pyridin-2-amine] | 6.93 | 9.40 |
| COc1ccc(Cc2nnc3cc(-c4ccnc(Nc5ccnn5C)n4)ccn23)cc1 [Example 49, 4-(3-(4-methoxybenzyl)-[1,2,4]triazolo[4,3-a]pyridin-7-yl)-N-(1-methyl-1H-pyrazol-5-yl)pyrimidin-2-amine] | 8.18 | 9.10 |
| Cn1nccc1Nc1nccc(-c2ccn3c(C(=O)N4CCCC4)nnc3c2)n1 [Example 512, (7-(2-((1-methyl-1H-pyrazol-5-yl)amino)pyrimidin-4-yl)-[1,2,4]triazolo[4,3-a]pyridin-3-yl)(pyrrolidin-1-yl)methanone] | < 5.30 | 6.77 |
| COc1ccc(Cc2nnc3cc(-c4ccnc(NC5CCOCC5)n4)ccn23)cc1F [Example 403, 4-(3-(3-fluoro-4-methoxybenzyl)-[1,2,4]triazolo[4,3-a]pyridin-7-yl)-N-(tetrahydro-2H-pyran-4-yl)pyrimidin-2-amine] | 7.73 | 9.05 |

— patent publication US9670208B2, “Serine/threonine kinase inhibitors” (Array BioPharma Inc., priority 2013, dated 2017)
